Reference: ChEMBL document CHEMBL1201862, “PubChem BioAssay data set” (2004)
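Results reflect a 48-hour exposure of cells in 96-well plates to compound at five concentrations. GI50 is the concentration that inhibits growth by half.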 Active and inactive are the calls of the source. No stated cut-off is given here; in the data, active = GI50 up to about 1.1 µM and inactive = higher.

Assays:
Test in all cases: growth of human tumour cells (NCI), 48 h
UACC-257 = tested on: UACC-257
A498 = tested on: A498
HL-60 = tested on: HL-60
SF-539 = tested on: SF-539
SN12C = tested on: SN12C
A549 = tested on: A549
RXF 393 = tested on: RXF 393
NCI-H460 = tested on: NCI-H460
NCI-H23 = tested on: NCI-H23
HT-29 = tested on: HT-29
HOP-62 = tested on: HOP-62
RPMI-8226 = tested on: RPMI-8226
KM12 = tested on: KM12
SK-MEL-2 = tested on: SK-MEL-2
OVCAR-5 = tested on: OVCAR-5
HCT-116 = tested on: HCT-116
SK-OV-3 = tested on: SK-OV-3
HCT-15 = tested on: HCT-15
K562 = tested on: K562
NCI-H226 = tested on: NCI-H226

Structure (SMILES): CCCCNC(=O)c1cc(S(=O)(=O)n2ccnc2O)c(SC)cc1Cl
- GI50 (UACC-257): > 100 µM (inactive)
- GI50 (A498): 26.1 µM (inactive)
- GI50 (HL-60): > 100 µM (inactive)
- GI50 (SF-539): > 100 µM (inactive)
- GI50 (SN12C): > 100 µM (inactive)
- GI50 (A549): > 100 µM (inactive)
- GI50 (RXF 393): > 100 µM (inactive)
- GI50 (NCI-H460): > 100 µM (inactive)
- GI50 (NCI-H23): > 100 µM (inactive)
- GI50 (HT-29): > 100 µM (inactive)
- GI50 (HOP-62): > 100 µM (inactive)
- GI50 (RPMI-8226): > 100 µM (inactive)
- GI50 (KM12): > 100 µM (inactive)
- GI50 (SK-MEL-2): > 100 µM (inactive)
- GI50 (OVCAR-5): > 100 µM (inactive)
- GI50 (HCT-116): > 100 µM (inactive)
- GI50 (SK-OV-3): > 100 µM (inactive)
- GI50 (HCT-15): > 100 µM
- GI50 (K562): > 100 µM (inactive)

Structure (SMILES): O=C(NNC(=S)Nc1ccccc1)c1nsc2ccccc12
- GI50 (UACC-257): 33.3 µM (inactive)
- GI50 (HL-60): 20.1 µM (inactive)
- GI50 (SF-539): 31.3 µM (inactive)
- GI50 (SN12C): 31.5 µM (inactive)
- GI50 (A549): 28.8 µM (inactive)
- GI50 (RXF 393): 40.7 µM (inactive)
- GI50 (NCI-H460): 21.5 µM (inactive)
- GI50 (NCI-H23): 36.6 µM (inactive)
- GI50 (HT-29): 50 µM (inactive)
- GI50 (HOP-62): 36.7 µM (inactive)
- GI50 (RPMI-8226): 16 µM (inactive)
- GI50 (KM12): 30.4 µM (inactive)
- GI50 (SK-MEL-2): 19.6 µM (inactive)
- GI50 (OVCAR-5): 57 µM (inactive)
- GI50 (HCT-116): 25.2 µM (inactive)
- GI50 (HCT-15): 10.7 µM
- GI50 (K562): 35.7 µM (inactive)

Structure (SMILES): COC1(OC)c2no[n+]([O-])c2CCC1O (stereo not given)
- GI50 (UACC-257): > 100 µM (inactive)
- GI50 (A498): > 100 µM (inactive)
- GI50 (SF-539): > 100 µM (inactive)
- GI50 (SN12C): > 100 µM (inactive)
- GI50 (A549): > 100 µM (inactive)
- GI50 (RXF 393): > 100 µM (inactive)
- GI50 (NCI-H460): > 100 µM (inactive)
- GI50 (NCI-H23): > 100 µM (inactive)
- GI50 (HT-29): > 100 µM (inactive)
- GI50 (HOP-62): > 100 µM (inactive)
- GI50 (RPMI-8226): > 100 µM (inactive)
- GI50 (NCI-H226): > 100 µM (inactive)
- GI50 (KM12): > 100 µM (inactive)
- GI50 (SK-MEL-2): > 100 µM (inactive)
- GI50 (OVCAR-5): > 100 µM (inactive)
- GI50 (HCT-116): > 100 µM (inactive)
- GI50 (SK-OV-3): > 100 µM (inactive)
- GI50 (HCT-15): > 100 µM
- GI50 (K562): > 100 µM (inactive)

Structure (SMILES): Cc1ccc(S(=O)(=O)NCCSS(=O)(=O)c2ccc(C)cc2)cc1
- GI50 (UACC-257): 64.1 µM (inactive)
- GI50 (A498): 11.3 µM (inactive)
- GI50 (SN12C): 29.7 µM (inactive)
- GI50 (A549): 25.9 µM (inactive)
- GI50 (RXF 393): 33.8 µM (inactive)
- GI50 (NCI-H460): 35.4 µM (inactive)
- GI50 (NCI-H23): 57.4 µM (inactive)
- GI50 (HT-29): 22.6 µM (inactive)
- GI50 (NCI-H226): 24.3 µM (inactive)
- GI50 (KM12): 28.1 µM (inactive)
- GI50 (HCT-116): 15.1 µM (inactive)
- GI50 (SK-OV-3): > 100 µM (inactive)
- GI50 (HCT-15): 18.7 µM
- GI50 (K562): 30.7 µM (inactive)

Structure (SMILES): O=C(CCCn1cnc([N+](=O)[O-])n1)NCCn1ccnc1[N+](=O)[O-]
- GI50 (UACC-257): > 100 µM (inactive)
- GI50 (HL-60): > 100 µM (inactive)
- GI50 (A549): > 100 µM (inactive)
- GI50 (RXF 393): > 100 µM (inactive)
- GI50 (NCI-H460): > 100 µM (inactive)
- GI50 (NCI-H23): > 100 µM (inactive)
- GI50 (HT-29): > 100 µM (inactive)
- GI50 (HOP-62): > 100 µM (inactive)
- GI50 (RPMI-8226): > 100 µM (inactive)
- GI50 (NCI-H226): > 100 µM (inactive)
- GI50 (KM12): > 100 µM (inactive)
- GI50 (SK-MEL-2): > 100 µM (inactive)
- GI50 (OVCAR-5): > 100 µM (inactive)
- GI50 (SK-OV-3): > 100 µM (inactive)
- GI50 (HCT-15): > 100 µM
- GI50 (K562): > 100 µM (inactive)

Structure (SMILES): CCNC(=S)NNC(=O)c1nsc2ccccc12
- GI50 (UACC-257): > 100 µM (inactive)
- GI50 (HL-60): 59.4 µM (inactive)
- GI50 (SF-539): > 100 µM (inactive)
- GI50 (SN12C): 55.1 µM (inactive)
- GI50 (A549): > 100 µM (inactive)
- GI50 (RXF 393): 44.6 µM (inactive)
- GI50 (NCI-H460): 50.1 µM (inactive)
- GI50 (NCI-H23): > 100 µM (inactive)
- GI50 (HT-29): 72.1 µM (inactive)
- GI50 (HOP-62): 73.6 µM (inactive)
- GI50 (RPMI-8226): 51.8 µM (inactive)
- GI50 (KM12): 67.1 µM (inactive)
- GI50 (SK-MEL-2): 2.88 µM (inactive)
- GI50 (OVCAR-5): > 100 µM (inactive)
- GI50 (HCT-116): 96.8 µM (inactive)
- GI50 (HCT-15): 38.2 µM
- GI50 (K562): 64.9 µM (inactive)

Structure (SMILES): Cc1nc2ccccc2c(=O)n1/N=C(\N=N\c1ccc(Cl)cc1)c1cccc(-c2ccco2)c1
- GI50 (A498): 61.8 µM (inactive)
- GI50 (HL-60): 25.1 µM (inactive)
- GI50 (SF-539): 28.6 µM (inactive)
- GI50 (SN12C): 29.2 µM (inactive)
- GI50 (A549): 40.6 µM (inactive)
- GI50 (RXF 393): 20.3 µM (inactive)
- GI50 (NCI-H460): 37.7 µM (inactive)
- GI50 (NCI-H23): 21.6 µM (inactive)
- GI50 (HT-29): 34.3 µM (inactive)
- GI50 (HOP-62): 22.5 µM (inactive)
- GI50 (RPMI-8226): 19.1 µM (inactive)
- GI50 (HCT-116): 19.1 µM (inactive)
- GI50 (SK-OV-3): 30.3 µM (inactive)
- GI50 (HCT-15): 30.2 µM
- GI50 (K562): 22.3 µM (inactive)

Structure (SMILES): CS(C)(=O)=Nn1c(=O)n2n(c1=O)C1c3ccccc3C2c2ccccc21
- GI50 (UACC-257): > 100 µM (inactive)
- GI50 (A498): > 100 µM (inactive)
- GI50 (HL-60): > 100 µM (inactive)
- GI50 (SF-539): > 100 µM (inactive)
- GI50 (A549): > 100 µM (inactive)
- GI50 (RXF 393): > 100 µM (inactive)
- GI50 (NCI-H460): > 100 µM (inactive)
- GI50 (NCI-H23): > 100 µM (inactive)
- GI50 (HT-29): > 100 µM (inactive)
- GI50 (HOP-62): > 100 µM (inactive)
- GI50 (RPMI-8226): > 100 µM (inactive)
- GI50 (SK-MEL-2): > 100 µM (inactive)
- GI50 (OVCAR-5): > 100 µM (inactive)
- GI50 (SK-OV-3): > 100 µM (inactive)
- GI50 (HCT-15): > 100 µM
- GI50 (K562): > 100 µM (inactive)

Structure (SMILES): COc1cc([C@@H]2c3cc4c(cc3[C@H](O)[C@H]3COC(=O)[C@H]23)OCO4)cc(OC)c1OC [PODOFILOX]
- GI50 (UACC-257): 29.9 µM (inactive)
- GI50 (A498): < 0.005 µM (active)
- GI50 (HL-60): < 0.005 µM (active)
- GI50 (SF-539): < 0.005 µM (active)
- GI50 (NCI-H23): < 0.005 µM (active)
- GI50 (HT-29): < 0.005 µM (active)
- GI50 (RPMI-8226): < 0.005 µM (active)
- GI50 (NCI-H226): < 0.005 µM (active)
- GI50 (KM12): < 0.005 µM (active)
- GI50 (OVCAR-5): 0.0375 µM (active)
- GI50 (HCT-116): < 0.005 µM (active)
- GI50 (SK-OV-3): < 0.005 µM (active)
- GI50 (K562): < 0.005 µM (active)

Structure (SMILES): Oc1ccc(Cl)cc1C1=NC(/N=C\c2ccccc2)=NC(c2ccccc2)C1 (stereo not given)
- GI50 (UACC-257): > 100 µM (inactive)
- GI50 (A498): 73.6 µM (inactive)
- GI50 (SF-539): 22.8 µM (inactive)
- GI50 (SN12C): 14.7 µM (inactive)
- GI50 (A549): 21.7 µM (inactive)
- GI50 (RXF 393): 66.1 µM (inactive)
- GI50 (NCI-H23): 3.87 µM (inactive)
- GI50 (HT-29): 24.8 µM (inactive)
- GI50 (HOP-62): 25.7 µM (inactive)
- GI50 (NCI-H226): 37.8 µM (inactive)
- GI50 (KM12): 10.5 µM (inactive)
- GI50 (SK-MEL-2): > 100 µM (inactive)
- GI50 (OVCAR-5): > 100 µM (inactive)
- GI50 (HCT-116): 5.94 µM (inactive)
- GI50 (SK-OV-3): 16.3 µM (inactive)
- GI50 (K562): > 100 µM (inactive)

Structure (SMILES): COc1ccc(/N=C\c2ccc(N(CCC#N)S(=O)(=O)c3ccccc3)cc2C)cc1
- GI50 (UACC-257): 39.5 µM (inactive)
- GI50 (HL-60): 16.9 µM (inactive)
- GI50 (SF-539): 44.2 µM (inactive)
- GI50 (SN12C): > 100 µM (inactive)
- GI50 (A549): 26.5 µM (inactive)
- GI50 (RXF 393): > 100 µM (inactive)
- GI50 (NCI-H460): 34.8 µM (inactive)
- GI50 (NCI-H23): 43 µM (inactive)
- GI50 (HT-29): 53.7 µM (inactive)
- GI50 (HOP-62): 25.1 µM (inactive)
- GI50 (RPMI-8226): > 100 µM (inactive)
- GI50 (NCI-H226): > 100 µM (inactive)
- GI50 (SK-MEL-2): 23.3 µM (inactive)
- GI50 (OVCAR-5): > 100 µM (inactive)
- GI50 (HCT-116): 87.1 µM (inactive)
- GI50 (SK-OV-3): > 100 µM (inactive)
- GI50 (HCT-15): 8.53 µM
- GI50 (K562): 11.1 µM (inactive)

Structure (SMILES): COC(=O)CN(C)P(=O)(N1CC1)N1CC1
- GI50 (UACC-257): > 100 µM (inactive)
- GI50 (HL-60): 26.9 µM (inactive)
- GI50 (SF-539): > 100 µM (inactive)
- GI50 (SN12C): 69.5 µM (inactive)
- GI50 (A549): > 100 µM (inactive)
- GI50 (RXF 393): > 100 µM (inactive)
- GI50 (NCI-H23): 83.4 µM (inactive)
- GI50 (HT-29): > 100 µM (inactive)
- GI50 (RPMI-8226): > 100 µM (inactive)
- GI50 (KM12): > 100 µM (inactive)
- GI50 (SK-MEL-2): > 100 µM (inactive)
- GI50 (OVCAR-5): > 100 µM (inactive)
- GI50 (SK-OV-3): > 100 µM (inactive)
- GI50 (HCT-15): > 100 µM
- GI50 (K562): > 100 µM (inactive)
